ChEMBL document CHEMBL1150213, “Protein-tyrosine kinase inhibition: mechanism-based discovery of antitumor agents” (J Nat Prod, 1992)
≈ marks a conversion by molar mass, not a printed value. Blank lines part the entries; values can stand above or below the compound they belong to. Where a SMILES comes first, the peptide text is derived from it. The star is where a group is joined. CH2Cl = ClC*

What was measured:
[1] = Inhibition of p40 tyrosine kinase
[2] = target: T1, Epidermal growth factor receptor (Homo sapiens, UniProt P00533)
[3] = target: T2, Tyrosine-protein kinase transforming protein Abl (Abelson murine leukemia virus, UniProt P00521)
T2 sequence (P00521 whole entry): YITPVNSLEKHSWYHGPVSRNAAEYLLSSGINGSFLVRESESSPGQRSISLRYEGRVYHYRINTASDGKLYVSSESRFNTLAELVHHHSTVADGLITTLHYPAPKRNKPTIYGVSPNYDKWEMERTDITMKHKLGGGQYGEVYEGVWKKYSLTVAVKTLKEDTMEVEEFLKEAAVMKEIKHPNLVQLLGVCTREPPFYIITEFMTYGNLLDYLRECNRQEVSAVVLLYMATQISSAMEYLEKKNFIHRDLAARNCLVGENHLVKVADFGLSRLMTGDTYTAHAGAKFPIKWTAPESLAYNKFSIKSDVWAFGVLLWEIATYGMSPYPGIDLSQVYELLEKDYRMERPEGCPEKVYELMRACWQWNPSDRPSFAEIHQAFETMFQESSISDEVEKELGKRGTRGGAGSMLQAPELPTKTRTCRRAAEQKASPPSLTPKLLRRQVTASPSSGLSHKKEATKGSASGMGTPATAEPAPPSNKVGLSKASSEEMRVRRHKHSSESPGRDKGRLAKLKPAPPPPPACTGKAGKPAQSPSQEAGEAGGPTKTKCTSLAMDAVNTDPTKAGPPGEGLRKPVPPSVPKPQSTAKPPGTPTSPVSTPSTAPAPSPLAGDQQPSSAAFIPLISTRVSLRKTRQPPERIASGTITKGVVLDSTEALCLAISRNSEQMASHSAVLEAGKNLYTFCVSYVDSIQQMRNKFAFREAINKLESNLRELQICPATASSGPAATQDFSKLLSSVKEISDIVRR
Description: Inhibition of Abelson murine leukemia virus p60 v-abl

[4] = target: T1, Epidermal growth factor receptor; assay: Inhibition of EGFR in human A431 cells at 400 nmol/mg protein in presence of EGF; assay type: cell-based; details: A-431
[5] = target: T1, Epidermal growth factor receptor; assay: Inhibition of EGFR in human A431 cells at 400 nmol/mg protein in absence of EGF; assay type: cell-based; details: A-431
[6] = target: Proto-oncogene tyrosine-protein kinase Src (Homo sapiens, UniProt P12931)
Sequence of Proto-oncogene tyrosine-protein kinase Src (P12931 2-536 limits assumed): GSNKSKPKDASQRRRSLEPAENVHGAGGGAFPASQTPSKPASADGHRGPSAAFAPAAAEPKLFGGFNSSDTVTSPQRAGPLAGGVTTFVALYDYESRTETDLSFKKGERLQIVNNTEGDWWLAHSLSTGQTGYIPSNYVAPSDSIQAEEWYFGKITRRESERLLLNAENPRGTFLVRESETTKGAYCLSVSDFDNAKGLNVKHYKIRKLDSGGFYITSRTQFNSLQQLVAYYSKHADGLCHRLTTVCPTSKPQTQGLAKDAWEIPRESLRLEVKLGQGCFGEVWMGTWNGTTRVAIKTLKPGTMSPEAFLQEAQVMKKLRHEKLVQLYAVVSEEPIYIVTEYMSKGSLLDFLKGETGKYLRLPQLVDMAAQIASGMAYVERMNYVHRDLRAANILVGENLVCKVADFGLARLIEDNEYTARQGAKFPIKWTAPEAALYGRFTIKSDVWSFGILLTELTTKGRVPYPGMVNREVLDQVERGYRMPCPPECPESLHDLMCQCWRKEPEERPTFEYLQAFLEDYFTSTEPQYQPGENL
Description: Inhibition of p60c-src expressed in chick embryo fibroblast

T1 sequence (P00533 whole entry): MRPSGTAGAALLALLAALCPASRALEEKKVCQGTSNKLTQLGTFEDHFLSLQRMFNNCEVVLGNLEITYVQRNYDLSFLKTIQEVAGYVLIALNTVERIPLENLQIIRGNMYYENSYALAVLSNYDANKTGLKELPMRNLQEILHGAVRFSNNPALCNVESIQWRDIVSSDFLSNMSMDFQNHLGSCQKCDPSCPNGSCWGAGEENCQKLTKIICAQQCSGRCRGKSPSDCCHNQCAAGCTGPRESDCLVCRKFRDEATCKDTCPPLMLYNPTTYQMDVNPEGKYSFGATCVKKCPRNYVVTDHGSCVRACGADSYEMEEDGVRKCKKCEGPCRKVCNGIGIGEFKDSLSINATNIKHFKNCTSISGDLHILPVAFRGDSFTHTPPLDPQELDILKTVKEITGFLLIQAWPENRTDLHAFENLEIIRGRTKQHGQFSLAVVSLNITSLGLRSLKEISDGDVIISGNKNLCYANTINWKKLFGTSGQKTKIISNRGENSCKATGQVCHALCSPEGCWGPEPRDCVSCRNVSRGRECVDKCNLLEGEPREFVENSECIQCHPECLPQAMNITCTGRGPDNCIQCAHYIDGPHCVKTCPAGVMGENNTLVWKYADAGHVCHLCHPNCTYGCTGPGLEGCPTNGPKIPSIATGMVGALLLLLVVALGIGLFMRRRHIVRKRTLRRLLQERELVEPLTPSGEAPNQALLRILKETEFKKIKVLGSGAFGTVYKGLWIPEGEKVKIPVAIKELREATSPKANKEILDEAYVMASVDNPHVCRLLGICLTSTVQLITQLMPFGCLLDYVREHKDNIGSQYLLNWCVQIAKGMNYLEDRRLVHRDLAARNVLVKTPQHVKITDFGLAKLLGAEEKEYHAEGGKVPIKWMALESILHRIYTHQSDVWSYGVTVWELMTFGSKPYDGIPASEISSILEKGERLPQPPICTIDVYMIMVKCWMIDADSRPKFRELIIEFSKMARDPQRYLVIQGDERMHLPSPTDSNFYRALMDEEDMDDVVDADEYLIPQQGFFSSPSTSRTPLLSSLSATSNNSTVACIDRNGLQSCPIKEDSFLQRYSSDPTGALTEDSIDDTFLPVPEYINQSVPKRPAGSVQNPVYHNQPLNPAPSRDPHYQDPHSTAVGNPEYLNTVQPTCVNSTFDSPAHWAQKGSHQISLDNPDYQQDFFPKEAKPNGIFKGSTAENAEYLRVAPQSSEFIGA

IC50 [1]: > 5 ×10² ug/ml
Compound: O=C1c2ccc(O)cc2O[C@H](c2ccc(O)c(O)c2)[C@H]1O [FUSTIN]

IC50 [2]: 5000 nM
IC50 [3]: > 100 µM
Compound: CCCCNC(=O)c1ccc(S(=O)(=O)Oc2ccc(/C=C/[N+](=O)[O-])cc2)cc1

inhibition [4]: 10%
inhibition [5]: 4%
Compound: CC(=O)N[C@@H](C)C(=O)N[C@@H](C)C(=O)N[C@@H](Cc1ccccc1)C(=O)N[C@H](C(=O)CCl)[C@@H](C)O (Ac-AAFT-CH2Cl)

IC50 [2]: 5000 nM
IC50 [3]: > 5 µM
Compound: NCCNC(=O)c1ccc(S(=O)(=O)Oc2ccc(/C=C/[N+](=O)[O-])cc2)cc1

inhibition [4]: 29%
inhibition [5]: 59%
Compound: CC(=O)N[C@@H](Cc1ccccc1)C(=O)NCC(=O)N[C@@H](C)C(=O)N[C@@H](CC(C)C)C(=O)CCl (Ac-FGAL-CH2Cl)

inhibition [4]: 0%
inhibition [5]: 5%
Compound: CC(=O)NCC(=O)NCC(=O)N[C@@H](C)C(=O)N[C@@H](Cc1ccccc1)C(=O)CCl (Ac-GGAF-CH2Cl)

inhibition [4]: 18%
inhibition [5]: 15%
Compound: CC(C)C[C@H](NC(=O)OCc1ccccc1)C(=O)C=[N+]=[N-]

IC50 [2]: 20000 nM
IC50 [3]: 20 µM
Compound: C[C@H](NC(=O)c1ccc(S(=O)(=O)Oc2ccc(/C=C/[N+](=O)[O-])cc2)cc1)C(=O)N[C@@H](C)C(=O)NCCN

inhibition [4]: 44%
inhibition [5]: 71%
Compound: C[C@H](NC(=O)OCc1ccccc1)C(=O)CCl

inhibition [4]: 10%
inhibition [5]: 6%
Compound: O=C(CCl)[C@H](Cc1c[nH]c2ccccc12)NOCc1ccccc1

IC50 [3]: > 40 µM
Compound: CNC(=O)c1ccc(S(=O)(=O)Oc2ccc(/C=C/[N+](=O)[O-])cc2)cc1

IC50 [2]: 300 nM
IC50 [3]: 100 µM
Compound: O=C(O)c1ccc(S(=O)(=O)Oc2ccc(/C=C/[N+](=O)[O-])cc2)c(O)c1

IC50 [3]: 40 µM
Compound: CC(=O)NC(Cc1ccc(NP(=O)(O)OP(=O)(O)OP(=O)(O)OC[C@H]2O[C@@H](n3cnc4c(N)ncnc43)[C@H](O)[C@@H]2O)cc1)C(N)=O (some centres undefined)

IC50 [2]: 1000 nM
IC50 [3]: 100 µM
Compound: CC(C)(C)OC(=O)NCCNC(=O)c1ccc(S(=O)(=O)Oc2ccc(/C=C/[N+](=O)[O-])cc2)cc1

IC50 [1]: > 300 µg/mL
Compound: O=C(O)/C=C/c1ccc(O)cc1 [COUMARIC ACID]

IC50 [1]: > 5 ×10² ug/ml
Compound: O=C1C[C@@H](c2ccccc2)Oc2cc(O)cc(O)c21 [PINOCEMBRIN]

IC50 [2]: 3000 nM
IC50 [3]: 40 µM
Compound: COc1cc(/C=C/[N+](=O)[O-])ccc1OS(=O)(=O)c1ccc(C(=O)O)cc1

IC50 [3]: 100 µM
Compound: CC(=O)NC(Cc1ccc(OS(=O)(=O)c2ccc(C(=O)OC[C@H]3O[C@@H](n4cnc5c(N)ncnc54)[C@H](O)[C@@H]3O)cc2)cc1)C(N)=O (some centres undefined)

IC50 [3]: 20 µM
Compound: Nc1ncnc2c1ncn2[C@@H]1O[C@H](COC(=O)c2ccc(S(=O)(=O)Nc3ccccc3)cc2)[C@@H](O)[C@H]1O

IC50 [1]: 3 ×10¹ ug/ml
Compound: Cc1ccc([C@@H]2CC(=O)c3c(O)cc(O)cc3O2)cc1

IC50 [2]: 1000 nM
IC50 [3]: > 100 µM
Compound: CC(C)NC(=O)c1ccc(S(=O)(=O)Oc2ccc(/C=C/[N+](=O)[O-])cc2)cc1

IC50 [3]: 60 µM
Compound: Nc1ncnc2c1ncn2[C@@H]1O[C@H](COC(=O)c2ccc(S(=O)(=O)NCCCc3ccccc3)cc2)[C@@H](O)[C@H]1O

IC50 [2]: 50 nM
IC50 [3]: 30 µM
Compound: O=C(O)c1ccc(S(=O)(=O)Oc2ccc(/C=C/[N+](=O)[O-])cc2)cc1O

IC50 [2]: 2000 nM
IC50 [3]: > 100 µM
Compound: COC(=O)c1ccc(S(=O)(=O)Oc2ccc(/C=C/[N+](=O)[O-])cc2)cc1

inhibition [4]: 15%
inhibition [5]: 21%
Compound: O=C(CCl)[C@H](Cc1ccccc1)NOCc1ccccc1

IC50 [2]: 2000 nM
IC50 [3]: > 100 µM
Compound: COC(=O)c1ccc(S(=O)(=O)Oc2ccc(/C=C/[N+](=O)[O-])cc2)cc1O

The next lines start with the compound.

Compound: O=C1c2c(O)cc(O)cc2O[C@H](c2ccc(O)c(O)c2)[C@H]1O [(+)-TAXIFOLIN]
IC50 [1]: 3 ×10² ug/ml

Compound: COc1cc(/C=C/C(=O)O)ccc1O [FERULATE]
IC50 [1]: > 300 µg/mL

Compound: CC(C)C[C@H](N)C(=O)CCl
inhibition [4]: 0%
inhibition [5]: 16%

Compound: Nc1nc2c(ncn2[C@@H]2O[C@H](COP(=O)(O)OP(=O)(O)OP(=O)(O)OP(=O)(O)OC[C@H]3O[C@@H](n4cnc5c(=O)[nH]c(N)nc54)[C@H](O)[C@@H]3O)[C@@H](O)[C@H]2O)c(=O)[nH]1
IC50 [6]: > 100 µM

Compound: Oc1cc(O)cc(/C=C/c2ccc(O)c(O)c2)c1 [PICEATANNOL]
IC50 [1]: 4 µg/mL (≈ 16.4 µM)

Compound: Nc1ncnc2c1ncn2[C@@H]1O[C@H](COC(=O)c2ccc(S(=O)(=O)Oc3ccc(/C=C/[N+](=O)[O-])cc3)cc2)[C@@H](O)[C@H]1O
IC50 [3]: > 100 µM

Compound: Cc1ccc(NP(=O)(O)OP(=O)(O)OP(=O)(O)OC[C@H]2O[C@@H](n3cnc4c(N)ncnc43)[C@H](O)[C@@H]2O)cc1
IC50 [3]: 200 µM

Compound: Cc1ccc(NP(=O)(O)OP(=O)(O)OP(=O)(O)OP(=O)(O)OC[C@H]2O[C@@H](n3cnc4c(N)ncnc43)[C@H](O)[C@@H]2O)cc1
IC50 [3]: 20 µM

Compound: Nc1ncnc2c1ncn2[C@@H]1O[C@H](COP(=O)(O)OP(=O)(O)OP(=O)(O)OP(=O)(O)Oc2ccccc2)[C@@H](O)[C@H]1O
IC50 [3]: 400 µM

Compound: CS(=O)(=O)c1ccc(C(=O)OC[C@H]2O[C@@H](n3cnc4c(N)ncnc43)[C@H](O)[C@@H]2O)cc1
IC50 [3]: 60 µM

Compound: COc1cc(/C=C/[N+](=O)[O-])ccc1OS(=O)(=O)c1ccc(C(=O)OC[C@H]2O[C@@H](n3cnc4c(N)ncnc43)[C@H](O)[C@@H]2O)cc1
IC50 [3]: 100 µM

Compound: Nc1ncnc2c1ncn2[C@@H]1O[C@H](COP(=O)(O)O)[C@@H](O)[C@H]1O [ADENOSINE PHOSPHATE]
IC50 [6]: 0.1 µM

Compound: O=C1C[C@@H](c2ccc(O)cc2)Oc2cc(O)cc(O)c21 [NARINGENIN]
IC50 [1]: 8 ×10¹ ug/ml

Compound: Nc1ncnc2c1ncn2[C@@H]1O[C@H](COP(=O)(O)OP(=O)(O)OP(=O)(O)OP(=O)(O)OC[C@H]2O[C@@H](n3cnc4c(N)ncnc43)[C@H](O)[C@@H]2O)[C@@H](O)[C@H]1O [DIADENOSINE TETRAPHOSPHATE]
IC50 [6]: 46 µM

Compound: Nc1ncnc2c1ncn2[C@@H]1O[C@H](COP(=O)(O)OP(=O)(O)OP(=O)(O)OP(=O)(O)O)[C@@H](O)[C@H]1O
IC50 [6]: 9 µM

Compound: CC(C)C[C@H](NC(=O)OC(C)(C)C)C(=O)CBr
inhibition [4]: 69%
inhibition [5]: 65%

Compound: CC(=O)NCCNP(=O)(O)OP(=O)(O)OP(=O)(O)OC[C@H]1O[C@@H](n2cnc3c(N)ncnc32)[C@H](O)[C@@H]1O
IC50 [3]: 30 µM

Compound: Nc1ncnc2c1ncn2[C@@H]1O[C@H](COP(=O)(O)OP(=O)(O)OP(=O)(O)Oc2ccccc2)[C@@H](O)[C@H]1O
IC50 [3]: 10 µM

Compound: Nc1ncnc2c1ncn2[C@@H]1O[C@H](COC(=O)c2ccc(S(N)(=O)=O)cc2)[C@@H](O)[C@H]1O
IC50 [3]: 100 µM
